Where “and” joins values, the source holds several entries; their conditions need not be identical. Identical values can stand only once. Like-named read-outs stand apart in the source and are kept apart here.
Columns and labels:
Assay type in all cases: biochemical
Human Recombinant MAO-A = biological target: T1, Human Recombinant MAO-A (Homo sapiens, UniProt P21397); experiment: Amine oxidase inhibition profile, MAO-A
T1 sequence (P21397 1-527): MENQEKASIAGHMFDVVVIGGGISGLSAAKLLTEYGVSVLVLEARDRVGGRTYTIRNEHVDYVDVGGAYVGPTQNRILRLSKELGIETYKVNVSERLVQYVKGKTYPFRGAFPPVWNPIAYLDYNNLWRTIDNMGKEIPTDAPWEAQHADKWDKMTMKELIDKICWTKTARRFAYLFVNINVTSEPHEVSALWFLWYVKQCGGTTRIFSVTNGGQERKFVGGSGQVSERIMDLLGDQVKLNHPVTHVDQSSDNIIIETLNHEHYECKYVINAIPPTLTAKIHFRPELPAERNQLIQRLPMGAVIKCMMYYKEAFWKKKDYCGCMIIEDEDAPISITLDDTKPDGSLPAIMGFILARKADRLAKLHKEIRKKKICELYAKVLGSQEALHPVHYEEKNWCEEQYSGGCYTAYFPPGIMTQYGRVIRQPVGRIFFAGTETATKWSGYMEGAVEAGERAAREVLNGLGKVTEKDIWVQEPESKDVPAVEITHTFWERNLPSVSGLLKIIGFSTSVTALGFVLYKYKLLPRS
Text: (§1) Supplem entary Materi als:
(§2) Supplementary Table S1: Amine oxidase inhibition profile of PXS -4787, PXS-6302 and
(§3) Supplementary Table S2: Perm eability profile of PXS -6302.

Human Recombinant MAO-B = biological target: T2, Human Recombinant MAO-B (Homo sapiens, UniProt P27338); experiment: Amine oxidase inhibition profile, MAO-B
T2 sequence (P27338 1-520): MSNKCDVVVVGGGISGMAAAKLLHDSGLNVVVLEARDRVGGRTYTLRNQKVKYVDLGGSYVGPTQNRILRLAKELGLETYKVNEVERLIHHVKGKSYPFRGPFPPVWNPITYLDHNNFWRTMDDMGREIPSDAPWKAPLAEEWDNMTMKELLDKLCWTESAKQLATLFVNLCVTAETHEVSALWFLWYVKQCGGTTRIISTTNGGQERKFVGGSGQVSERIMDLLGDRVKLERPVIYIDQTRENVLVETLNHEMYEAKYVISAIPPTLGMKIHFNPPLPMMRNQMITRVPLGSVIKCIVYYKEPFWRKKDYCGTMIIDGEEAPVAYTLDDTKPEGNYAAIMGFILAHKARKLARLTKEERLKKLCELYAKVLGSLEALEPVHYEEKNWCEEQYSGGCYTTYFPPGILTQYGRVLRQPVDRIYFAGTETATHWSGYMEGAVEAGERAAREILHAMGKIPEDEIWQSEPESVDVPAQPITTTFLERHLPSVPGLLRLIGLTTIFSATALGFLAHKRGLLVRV
Text: as §1, §2, §3

Human Recombinant SSAO = biological target: T3, Human Recombinant SSAO (Homo sapiens, UniProt Q16853); experiment: Compound oxidation assay (substrate propensity) by SSAO; conditions: for Oxidation by SSAO (hydrogen peroxide generated relative to DMSO): single concentration 30 µM
T3 sequence (Q16853 1-763): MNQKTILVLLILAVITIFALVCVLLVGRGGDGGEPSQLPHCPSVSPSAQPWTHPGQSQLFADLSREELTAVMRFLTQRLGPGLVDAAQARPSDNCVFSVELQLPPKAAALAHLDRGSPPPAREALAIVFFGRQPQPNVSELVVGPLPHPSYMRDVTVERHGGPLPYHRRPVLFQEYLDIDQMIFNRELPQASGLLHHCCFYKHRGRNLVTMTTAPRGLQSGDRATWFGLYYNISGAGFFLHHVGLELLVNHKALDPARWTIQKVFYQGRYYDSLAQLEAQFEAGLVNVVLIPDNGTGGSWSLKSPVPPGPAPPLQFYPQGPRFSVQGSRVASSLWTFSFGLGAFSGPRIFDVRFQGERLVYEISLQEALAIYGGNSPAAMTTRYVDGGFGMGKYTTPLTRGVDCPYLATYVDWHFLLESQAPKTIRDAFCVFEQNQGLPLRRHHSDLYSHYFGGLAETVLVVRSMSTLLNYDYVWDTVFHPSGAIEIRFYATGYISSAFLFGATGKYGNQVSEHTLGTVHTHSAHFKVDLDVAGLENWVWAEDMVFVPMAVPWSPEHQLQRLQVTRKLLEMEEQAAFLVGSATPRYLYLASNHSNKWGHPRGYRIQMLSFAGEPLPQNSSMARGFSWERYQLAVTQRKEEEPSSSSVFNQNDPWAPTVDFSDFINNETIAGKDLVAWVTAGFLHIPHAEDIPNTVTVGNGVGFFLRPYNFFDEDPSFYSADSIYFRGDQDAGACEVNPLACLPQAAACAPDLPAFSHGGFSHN
Procedure: For compound oxidation assays, the amount of hydrogen peroxide generated at a single concentration (30 µM) of compound relative to DMSO was measured.
Data are expressed as mean ± SEM. Subsequent statistical analysis was performed with unpaired two-sided Student’s t tests. *p < 0.05, **p < 0.01, ***p < 0.001and ****p < 0.0001. Source data are provided as a Source Data file.
This assay determines the substrate propensity of a compound relative to background (dimethyl sulfoxide only). Compound oxidation by rhSSAO was measured by fluorometric assay. Briefly, rhSSAO was incubated for 2 h at 37 °C in HEPES buffer before the addition of an equal volume of Amplex Red ([…]), horseradish peroxidase (4 U/ml), and test compound in the same buffer. The kinetics of the formation of resorufin was measured immediately using Optima reader (BMG Labtech GmbH, Ortenburg, Germany), at 37 °C.

[1] = read-out: Recombinant MAO-A IC50
[2] = read-out: Recombinant MAO-B IC50

`N#CCCN` [BAPN, β-aminoproprionitrile, reference compound] was tested, and the “Recombinant MAO-A pIC50” value (Human Recombinant MAO-A) was < 4.5, the IC50 (Human Recombinant MAO-A; [1]) was > 30 µM and the “Recombinant MAO-B pIC50” value (Human Recombinant MAO-B) was < 4. For the same compound, the IC50 (Human Recombinant MAO-B; [2]) was > 100 µM, the “SSAO specificity (Fig 2F), oxidation, individual experiments” value (from here on “SSAO specificity (Fig 2F), oxidation”) (Human Recombinant SSAO; 30) was 1.24 and 1.43 and 1.55 and 1.3 and 1.39 and the “SSAO specificity (Fig 2F), oxidation” value (Human Recombinant SSAO; 60) was 2.24 and 2.72 and 2.02 and 1.5 and 1.72. For the same compound, the “SSAO specificity (Fig 2F), oxidation” value (Human Recombinant SSAO; 90) was 4.91 and 2.48 and 2.66 and 3.66.

`NC/C=C(\F)CS(=O)(=O)c1ccccc1` [PXS-4787] was tested, and the IC50 (Human Recombinant MAO-A; [1]) was > 30 µM, the IC50 (Human Recombinant MAO-B; [2]) was > 100 µM and the “Oxidation by SSAO (hydrogen peroxide generated relative to DMSO)” value (Human Recombinant SSAO) was 1.3.

For `NC/C=C(\F)C(F)(F)S(=O)(=O)c1ccccc1` [PXS-6302], the IC50 (Human Recombinant MAO-A) was > 30 µM, the IC50 (Human Recombinant MAO-B) was > 30 µM and the “SSAO specificity (Fig 2F), oxidation” value (Human Recombinant SSAO; 30) was 1.48 and 1.33 and 1.2 and 1.19 and 1.18 and 1.24 and 1.1 and 1.3 and 1.37 and 1.13 and 1.23. The “SSAO specificity (Fig 2F), oxidation” value (Human Recombinant SSAO; 60) was 1.4 and 1.33 and 1.41, the “SSAO specificity (Fig 2F), oxidation” value (Human Recombinant SSAO; 90) was 1.53 and 2.99 and 4.36 and the “Oxidation by SSAO (hydrogen peroxide generated relative to DMSO)” value (Human Recombinant SSAO) was 1.3.
